The GI50 is the concentration that inhibits growth by half.

Among the test systems are SR; CCRF-CEM; HCT-15; PC-3; SK-MEL-28; SK-MEL-5; SNB-19; MDA-MB-435; SK-MEL-2; COLO 205; RPMI-8226; HOP-92; IGROV-1; UACC-62; RXF 393; HT-29; K562; ACHN; A498; SF-539.
What all share (assay): DTP human tumour cell line panel, 48 h

Structures are written as SMILES.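 Five concentrations, 48 hours, 96-well plates. At the GI50, growth is halved.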 Calls of active or inactive are those of the source. Rule as the data show it: active = GI50 up to about 1.1 µM and inactive = higher. Bounds are passed on as bounds.

Take `FC1=C2CCCCCC2SC1(F)F` (stereo not drawn): the GI50 was 20.1 µM (inactive) in the assay on SR; 3.36 µM (inactive) with CCRF-CEM; 34.4 µM with HCT-15; > 100 µM (inactive) with PC-3; > 100 µM (inactive) in the assay with SK-MEL-28; > 100 µM (inactive) in the assay on SK-MEL-5. The GI50 is > 100 µM (inactive) with SNB-19; 26.4 µM (inactive) in the assay with MDA-MB-435; > 100 µM (inactive) in the assay on SK-MEL-2; 19.1 µM (inactive) in the assay with COLO 205; 28.6 µM (inactive) in the assay with RPMI-8226; 7.18 µM (inactive) in the assay with HOP-92. Further, the GI50 in the assay on IGROV-1 is > 100 µM (inactive); in the assay on UACC-62 it was > 100 µM (inactive); with RXF 393, 13.3 µM (inactive); in the assay on HT-29 it was 43.6 µM (inactive); in the assay on K562, 20.8 µM (inactive); in the assay with ACHN, 29.8 µM (inactive).
Consider `CC1(C)C(OC(=O)c2ccccc2)C[C@]23CCC[C@](C)(C[C@@H](O)C12)C3` (stereo partly drawn), for which the GI50 is 9.91 µM (inactive) with SR; 11.7 µM (inactive) in the assay with CCRF-CEM; 18.4 µM with HCT-15; 11.5 µM (inactive) in the assay with PC-3; 15.8 µM (inactive) in the assay with SK-MEL-28; 13.1 µM (inactive) with SK-MEL-5. The GI50 is 23.6 µM (inactive) in the assay with SNB-19; 18 µM (inactive) in the assay with MDA-MB-435; 17.6 µM (inactive) in the assay on SK-MEL-2; 17.5 µM (inactive) in the assay on COLO 205; 23.9 µM (inactive) in the assay with RPMI-8226; 16 µM (inactive) in the assay on HOP-92. Besides, the GI50 in the assay on IGROV-1 is 20.2 µM (inactive); in the assay with UACC-62, 15.2 µM (inactive); in the assay with HT-29, 16.1 µM (inactive); with K562 it was 13.5 µM (inactive); in the assay on ACHN it was 17.9 µM (inactive).
Take `NC(Cc1cccc([N+](=O)[O-])c1)C(=O)O` (stereo not drawn): the GI50 with CCRF-CEM was > 100 µM (inactive); in the assay with HCT-15 it was greater than 100 µM; in the assay on PC-3, > 100 µM (inactive); with SK-MEL-28, > 100 µM (inactive); in the assay with SK-MEL-5 it was > 100 µM (inactive); in the assay with A498, > 100 µM (inactive). In addition, the GI50 in the assay on SNB-19, in the assay on SF-539, in the assay on MDA-MB-435, in the assay on SK-MEL-2, with COLO 205 and in the assay on RPMI-8226 was > 100 µM (inactive) throughout. The GI50 in the assay on HOP-92 is 61.5 µM (inactive); with IGROV-1 it was > 100 µM (inactive); in the assay with UACC-62, > 100 µM (inactive); with RXF 393, > 100 µM (inactive); with HT-29, > 100 µM (inactive); in the assay on K562, > 100 µM (inactive). Further, in the assay with ACHN, the GI50 was > 100 µM (inactive).
As for `Cc1ccc(C(=O)N(C(C)C)C(C)C)cc1/N=N/N(C)C`, the GI50 in the assay on SR is 41.4 µM (inactive); in the assay with CCRF-CEM, > 10 µM (inactive); in the assay on HCT-15, greater than 82.6 µM; in the assay with PC-3 it was > 100 µM (inactive); in the assay on SK-MEL-28 it was 41.1 µM (inactive); in the assay on SK-MEL-5 it was > 100 µM (inactive). The GI50 with SNB-19 is > 100 µM (inactive); in the assay on SF-539 it was > 95.7 µM (inactive); in the assay with MDA-MB-435 it was > 100 µM (inactive); in the assay on SK-MEL-2 it was > 100 µM (inactive); with COLO 205 it was > 100 µM (inactive); with RPMI-8226, 33 µM (inactive). The GI50 was > 64.6 µM (inactive) in the assay with HOP-92; > 100 µM (inactive) with IGROV-1; > 80.5 µM (inactive) with UACC-62; 74.1 µM (inactive) in the assay on HT-29; 38.8 µM (inactive) with K562; > 75.5 µM (inactive) in the assay on ACHN.
Take `CC(C)(C)OC(=O)N1CCC23CCCC2C(=O)CC=C13` (stereo not drawn): the GI50 was > 100 µM (inactive) in the assay on SR; 37.9 µM (inactive) in the assay with CCRF-CEM; greater than 100 µM with HCT-15; > 100 µM (inactive) with PC-3; > 100 µM (inactive) with SK-MEL-28; > 100 µM (inactive) in the assay on SK-MEL-5. Also, the GI50 is > 100 µM (inactive) in the assay on SNB-19; > 100 µM (inactive) with SF-539; > 100 µM (inactive) in the assay on MDA-MB-435; > 100 µM (inactive) in the assay on SK-MEL-2; 70.8 µM (inactive) with COLO 205; 38.3 µM (inactive) in the assay on HOP-92. For the same compound, the GI50 in the assay on IGROV-1, in the assay on UACC-62, with RXF 393, in the assay with HT-29, in the assay with K562 and in the assay with ACHN was > 100 µM (inactive) throughout.
As for `C=CC/N=C(\S)Nc1sc2c(c1C(=O)OCC)CC(C)CC2` (stereo not drawn), the GI50 with SR was 18.9 µM (inactive); in the assay on HCT-15, 31.8 µM; in the assay with PC-3, 21.1 µM (inactive); with SK-MEL-28 it was 33.1 µM (inactive); in the assay with SK-MEL-5 it was 16.3 µM (inactive); with SNB-19, 26.3 µM (inactive). The GI50 in the assay with MDA-MB-435 is 32 µM (inactive); with SK-MEL-2, 21.2 µM (inactive); in the assay with COLO 205 it was 18.6 µM (inactive); in the assay with RPMI-8226, 23.1 µM (inactive); in the assay with HOP-92, 33 µM (inactive); with IGROV-1, 33.3 µM (inactive). Further, the GI50 in the assay with UACC-62 is 20.6 µM (inactive); with RXF 393, 26.5 µM (inactive); in the assay on HT-29, 21.5 µM (inactive); in the assay with K562, 33 µM (inactive); with ACHN it was 22.9 µM (inactive).
`O=C(NCCCCCCNC(=O)c1cccc2ccccc12)Nc1cccc2ccccc12`: the GI50 in the assay on CCRF-CEM is > 100 µM (inactive); in the assay on HCT-15, greater than 100 µM; in the assay with PC-3, > 100 µM (inactive); in the assay with SK-MEL-28 it was > 100 µM (inactive); with SK-MEL-5, > 100 µM (inactive); in the assay with A498, > 100 µM (inactive). In addition, the GI50 in the assay with SNB-19, in the assay with SF-539, with MDA-MB-435, in the assay on SK-MEL-2, with COLO 205 and in the assay with RPMI-8226 was > 100 µM (inactive) throughout. Also, the GI50 in the assay with HOP-92, in the assay with IGROV-1, in the assay on UACC-62, with RXF 393, in the assay on HT-29 and with K562 was > 100 µM (inactive) each time. In the assay on ACHN, the GI50 was > 100 µM (inactive).
With `O=C(O)CNC(=O)c1ccc2cc(C(=O)N3CC(CCl)c4ccc([N+](=O)[O-])cc43)[nH]c2c1` (stereo not drawn), the GI50 in the assay with SR is > 100 µM (inactive); in the assay on CCRF-CEM, > 100 µM (inactive); with HCT-15, greater than 100 µM; in the assay with PC-3, > 100 µM (inactive); in the assay on SK-MEL-5, > 100 µM (inactive); in the assay on SNB-19, > 100 µM (inactive). Further, the GI50 in the assay with SF-539, in the assay with MDA-MB-435, in the assay with SK-MEL-2, in the assay with COLO 205, in the assay with RPMI-8226 and in the assay with HOP-92 was > 100 µM (inactive) each time. The GI50 in the assay with IGROV-1, with UACC-62, with RXF 393, with HT-29 and in the assay with ACHN was > 100 µM (inactive) throughout.
As to `CCCCCCSC[C@H](OC(C)=O)[C@@H](OC(C)=O)[C@@H](OC(C)=O)[C@@H](COC(C)=O)OC(C)=O`, the GI50 was 43.6 µM (inactive) in the assay with CCRF-CEM; 62.5 µM with HCT-15; 27.7 µM (inactive) in the assay on PC-3; > 100 µM (inactive) in the assay with SK-MEL-28; 23.4 µM (inactive) in the assay on SK-MEL-5; > 100 µM (inactive) with A498. In addition, the GI50 with SNB-19 is > 100 µM (inactive); in the assay with SF-539 it was > 100 µM (inactive); with MDA-MB-435 it was > 100 µM (inactive); in the assay on SK-MEL-2, > 100 µM (inactive); with COLO 205, 64.9 µM (inactive); in the assay with RPMI-8226 it was 13.3 µM (inactive). Moreover, the GI50 was > 100 µM (inactive) in the assay on HOP-92; 83.8 µM (inactive) with IGROV-1; > 100 µM (inactive) in the assay on UACC-62; > 100 µM (inactive) in the assay on RXF 393; > 100 µM (inactive) with HT-29; 43.9 µM (inactive) in the assay with K562. Besides, the GI50 with ACHN is > 100 µM (inactive).
In the case of `CCOC(=O)/C=C(/C(=O)OCC)n1cc(C)c(=O)n(Cc2cn(CCCCOC(C)=O)nn2)c1=O`, the GI50 in the assay with SR is 4.27 µM (inactive); in the assay with CCRF-CEM it was 0.363 µM (active); in the assay with HCT-15, 4.76 µM; in the assay on PC-3, 19.7 µM (inactive); in the assay on SK-MEL-28, 13.4 µM (inactive); in the assay with SK-MEL-5, 25.6 µM (inactive). Besides, the GI50 in the assay on SNB-19 was 18.8 µM (inactive); with SF-539, 4.54 µM (inactive); with MDA-MB-435 it was 10.7 µM (inactive); with SK-MEL-2, 20.1 µM (inactive); with COLO 205 it was 3.55 µM (inactive); in the assay on RPMI-8226, 5.13 µM (inactive). The GI50 with HOP-92 is 1.21 µM (inactive); in the assay with IGROV-1 it was 15.2 µM (inactive); with UACC-62 it was 14.7 µM (inactive); with RXF 393, 17.6 µM (inactive); with HT-29, 8.05 µM (inactive); in the assay on K562, 4.14 µM (inactive). Also, the GI50 with ACHN was 5.09 µM (inactive).
As to `O=C(CN(C(=O)OC12CC3CC(CC(C3)C1)C2)C(=O)OC12CC3CC(CC(C3)C1)C2)Oc1ccc([N+](=O)[O-])cc1`, the GI50 was > 100 µM (inactive) with SR; 30.5 µM (inactive) in the assay with CCRF-CEM; greater than 100 µM with HCT-15; 16.1 µM (inactive) in the assay with PC-3; > 100 µM (inactive) with SK-MEL-28; 87.5 µM (inactive) with SK-MEL-5. For the same compound, the GI50 was > 100 µM (inactive) in the assay with SNB-19; > 100 µM (inactive) in the assay with SF-539; 45.3 µM (inactive) in the assay with MDA-MB-435; > 100 µM (inactive) in the assay with COLO 205; > 100 µM (inactive) in the assay with HOP-92; > 100 µM (inactive) with IGROV-1. For the same compound, the GI50 with UACC-62 is > 100 µM (inactive); with RXF 393 it was 42 µM (inactive); with HT-29, > 100 µM (inactive); in the assay with K562 it was 58.1 µM (inactive); in the assay with ACHN it was > 100 µM (inactive).

These data come from ChEMBL document CHEMBL1201862, “PubChem BioAssay data set” (2004).
